Species: Cavia porcellus
Experiment: Effective dose for relaxation of guinea pig taenia coli strips
Format: functional

Going from `CCCCC/C=C/C/C=C/CCCCCCCC1OCC(COP(=O)([O-])OCC[N+](C)(C)C)O1` (stereo not drawn) to `CCCCCCCC/C=C/CCCCCCCC1OCC(COP(=O)([O-])OCC[N+](C)(C)C)O1` (cis isomer), the ED60 rises from 50 µM to 200 µM (4-fold).

In the case of `CCCCCCCCCCCCCCCC1OCC(COP(=O)([O-])OCC[N+](C)(C)C)O1` (stereo not drawn), the ED60 is reported as 57 µM.

Source: ChEMBL document CHEMBL1124496, “Darmstoff analogues. 3. Actions of choline esters of acetal phosphatidic acids on visceral smooth muscle” (1989)
